Laboratory results published in patent publication US20110268800A1, “Unsaturated fatty acids as thrombin inhibitors” (LTS Lohmann Therapie-Systeme AG, priority 2005, published 2011).

Target: thrombin (Homo sapiens, UniProt P00734)
Experiment: thrombin inhibition test, amidolytic assay with Chromozym TH
Format: biochemical
Details: for Inhibition (%): thrombin, substrate Chromozym TH, pH 8.0, room temperature, 15 min preincubation; for thrombin-inhibiting action of fatty acids identified in the plant drugs (in words): free fatty acids separated from hexane/isopropanol (3:2) lipid extracts by preparative thin layer chromatography
Description: As the testing system, an amidolytic assay with Chromozym TH (tosylglycyl-prolyl-arginine-4-nitroanilide acetate) was used as a substrate for thrombin. The principle of the test system is based on the cleavage of the substrate by thrombin, and on the release of p-nitroaniline, which absorbs at a wavelength of 405 nm. The absorption increase over time was detected photometrically. The inhibition of thrombin was calculated by a comparison between the linear initial phase of the absorption increase of the test samples containing the extract, and the blank value.
For the thrombin inhibition test, the method according to Sturzebecher was employed, with the exception of the enzyme concentration (Sturzebecher, J., Vieweg, H. (1995). Structure-Activity Relationships of Inhibitors derived from 3-Amidinophenyl-alanine. J Enzyme Inhib, 9, 87-99). • Buffer: 608 mg Tris buffer and 900 mg NaCl were dissolved in 100 ml bidistilled water. The pH value of the buffer was subsequently set to 8.0, using HCl (2 mMol) (concentrations in the sample: 0.05 mol/1 Tris HCL, 0.154 mol/1 NaCl). The substance to be examined was dissolved in ethanol (5% total volume). This was followed by filling up with buffer. • Enzyme: 1 mg/ml (=50 NIH—U/ml) thrombin was dissolved in 0.9% NaCl solution (stock solution). To prepare the sample, this solution was diluted 1:100 with a solution of 0.9% NaCL and 1% bovine serum albumin. • Substrate: 6.6 mg Chromozym TH was dissolved in 10 ml bidistilled water (concentration=1 mmol/l). • Measurement sample: 200 μl buffer/substance • 25 μl substrate • 50 μl enzyme • Conditions: Room temperature • Implementation: Buffer and enzyme are added together by pipetting and incubated for 15 min. The reaction was started by adding the substrate. • For measuring the absorption, a plate reader, iEMS Reader MF from Labsystems, was used with 96-well microtitre plates. The measurements took place at a wavelength of 405 nm, every 10 seconds, 60 measurements. Prior to start of the measurements, the microtitre plate was shaken at 600 rpm. • Evaluation: The measurements were recorded by means of iEMS Accent Software, and evaluated with Microsoft Excel 97 Software. • To calculate inhibition, the slope in the linear initial phase of the absorption increase in the samples containing the substance to be examined was compared with the slope of the absorption increase in the blank sample. For evaluation, the first 5 measured values were left out of consideration since the bubbles forming on account of the mixing can lead to problems at the beginning of the reaction. The inhibition is calculated as follows:
Inhibition=100−(slopeInhibitor/slopeBlank value*100)

Compound: CCCCCC[C@@H](O)C/C=C/CCCCCCCC(=O)O (stereo in doubt) [Ricinoleic acid, 12-Hydroxy-9-cis-octadecenoic acid]
- Inhibition (%) (test concentration not printed): 43.9%

Compound: C=CCCCCCCCC(=O)O [9-Decenoic acid]
- Inhibition (%) (test concentration not printed): −3.7%

Compound: CCCCC/C=C\C/C=C\C/C=C\C/C=C\CCCC(=O)O [Arachidonic acid, 5-cis, 8-cis, 11-cis, 14-cis-Eicosatetraenoic acid]
- Inhibition (%) (test concentration not printed): 75.2%

Compound: CC/C=C\C/C=C\C/C=C\C/C=C\C/C=C\C/C=C\CCC(=O)O [Docosahexaenoic acid, 4-cis, 7-cis, 10-cis, 13-cis, 16-cis, 19-cis-Docosahexaenoic acid]
- Inhibition (%) (test concentration not printed): −2.5%

Compound: CC/C=C\C/C=C\C/C=C\C/C=C\C/C=C\CCCC(=O)O [Eicosapentaenoic acid, 5-cis, 8-cis, 11-cis, 14-cis, 17-cis-Eicosapentaenoic acid]
- Inhibition (%) (test concentration not printed): −1.0%

Compound: CC/C=C\C/C=C\C/C=C\CCCCCCCCCC(=O)O [Eicosatrienoic acid, 11-cis, 14-cis, 17-cis-Eicosatrienoic acid]
- Inhibition (%) (test concentration not printed): 76.0%

Compound: CCCCCCCC/C=C\CCCCCCCCCC(=O)O [Eicosenoic acid, 11-cis-Eicosenoic acid]
- thrombin-inhibiting action of fatty acids identified in the plant drugs (in words): identified as the thrombin-inhibiting substances
- Inhibition (%) (test concentration not printed): 60.7%

Compound: CCCCCCCC/C=C/CCCCCCCC(=O)O [Elaidinic acid, 9-trans-Octadecenoic acid]
- Inhibition (%) (test concentration not printed): 7.4%

Compound: CCCCCCCC/C=C\CCCCCCCCCCCC(=O)O [Eruca acid, 13-cis-Docosaenoic acid]
- Inhibition (%) (test concentration not printed): 7.8%

Compound: CCCCC/C=C\C/C=C\CCCCCCCC(=O)O [Linoleic acid, 9-cis,12-cis-Octadecadienoic acid]
- thrombin-inhibiting action of fatty acids identified in the plant drugs (in words): responsible for the thrombin-inhibiting action
- Inhibition (%) (test concentration not printed): 71.7%

Compound: CC/C=C\C/C=C\C/C=C\CCCCCCCC(=O)O [Linolenic acid, 9-cis, 12-cis, 15-cis-Octadecatrienoic acid]
- Inhibition (%) (test concentration not printed): 75.5%

Compound: CCCCCCCC(=O)O [Octanoic acid]
- Inhibition (%) (test concentration not printed): 0.7%

Compound: CCCCCCCC/C=C\CCCCCCCC(=O)O [Oleic acid, 9-cis-Octadecenoic acid]
- thrombin-inhibiting action of fatty acids identified in the plant drugs (in words): identified as the thrombin-inhibiting substances
- Inhibition (%) (test concentration not printed): 65.8%
- Inhibition (%) (test concentration not printed, listed as oleic acid): 66%

Compound: CCCCCCCCCCCCCCCC(=O)O [Palmitic acid, Hexadecanoic acid]
- thrombin-inhibiting action of fatty acids identified in the plant drugs (in words): without effect
- Inhibition (%) (test concentration not printed): 1.4%

Compound: CC/C=C\C/C=C\C/C=C\C/C=C\CCCCC(=O)O [Stearidonic acid, 6-cis, 9-cis, 12-cis, 15-cis-Octadecatetraenoic acid]
- Inhibition (%) (test concentration not printed): 2.4%

Compound: CCCCCC/C=C\CCCCCCCCCC(=O)O [Vaccenic acid, 11-cis-Octadecenoic acid]
- Inhibition (%) (test concentration not given, listed as cis-vaccenic acid): 80%
- Inhibition (%) (test concentration not printed): 79.9%
